Data reported in paper PMC10712727, “Safety, Tolerability, and Pharmacokinetics of Senaparib, a Novel PARP1/2 Inhibitor, in Chinese Patients With Advanced Solid Tumors: A Phase I Trial” (The Oncologist, 2023).

Test system: patients with advanced solid tumors
Experiment: Safety: treatment-emergent and senaparib-related adverse events graded per NCI CTCAE v4.03
Assay type: in vivo
Details: for ALT increased, All / ALT increased, Gr≥3 / AST increased, All / AST increased, Gr≥3 / Abdominal distension, All / Abdominal distension, Gr≥3 / Anemia (incl. hemoglobin decreased), All / Anemia (incl. hemoglobin decreased), Gr≥3 / Appetite decreased, All / Appetite decreased, Gr≥3 / Asthenia, All / Asthenia, Gr≥3 / Blood bilirubin increased, All / Blood bilirubin increased, Gr≥3 / Blood creatinine increased, All / Blood creatinine increased, Gr≥3 / Hypokalemia, All / Hypokalemia, Gr≥3 / Hyponatremia, All / Hyponatremia, Gr≥3 / Nausea, All / Nausea, Gr≥3 / Neutrophil count decreased, All / Neutrophil count decreased, Gr≥3 / Pain in extremity, All / Pain in extremity, Gr≥3 / Platelet count decreased, All / Platelet count decreased, Gr≥3 / Protein in urine, All / Protein in urine, Gr≥3 / Vomiting, All / Vomiting, Gr≥3 / WBC decreased, All / WBC decreased, Gr≥3: TEAE
Procedure: This phase I, open-label, multicenter, dose-escalation, and dose-expansion study was conducted at three national clinical institutions in China. […] At baseline, all patients enrolled in the dose-escalation phase had to have at least one evaluable lesion, and those in the dose-expansion period had to have at least one measurable lesion, according to Response Evaluation Criteria in Solid Tumors version 1.1 (RECIST v1.1).[16] Entry to the dose-expansion cohort required the presence of a BRCA mutation, with the exception of patients with ovarian carcinoma, fallopian tube carcinoma, and primary peritoneal carcinoma. Full study eligibility criteria are provided in Supplementary Table S1.
Dose escalation was conducted using a modified Fibonacci 3 + 3 method (Supplementary Fig. S1).[17] Patients were administered oral senaparib from a planned starting dose of 2 mg once daily (QD), with preliminary dose escalation to 120 mg via nine dose groups, in order of their entry into the study. At a given dose level, each patient received a single dose of senaparib followed by a 7-day washout period. They then entered a continuous dosing period to confirm the safety and PK profile, in which they received senaparib QD from day 1 to day 21 of each 3-week cycle. Progression to the next higher dose required approval from the Data Safety Monitoring Committee (DSMC) upon review of the safety and PK data of the previous dose. A 50-mg twice-daily (BID) dosing group was added (planned enrollment, n = 6 patients) based on a DSMC review of the safety, PK, and efficacy analysis of the completed QD dose groups in the phase I clinical trial of senaparib dose escalation in Australia (NCT03507543), which commenced prior to the start of this trial.
The dose-expansion period included 3 populations: dose groups in which at least one patient achieved complete response (CR) or partial response (PR) per RECIST v1.1[16] and 1 dose group higher (evaluated for safety), as well as the dose group at the maximum tolerated dose (MTD)/recommended phase II dose (RP2D). Each of these groups included those patients in the respective dose-escalation group plus a planned additional 10 patients (approximately 20 patients in the MTD/RP2D group) with BRCA^mut+ solid tumors (ovarian, breast, or prostate cancer were preferred, and ovarian cancer could be BRCA wild type). Patients received senaparib monotherapy orally QD or BID (50-mg dose only) over each 3-week cycle until disease progression or unacceptable toxicity.
DLTs were predefined toxicities (Supplementary Table S2) recorded over the 7 days following the single-dose administration of senaparib and during the first treatment cycle (day 1-day 21) for each dose group in the dose-escalation period only. The MTD was defined as the maximum dose at which ≤1/6 patients experienced a DLT. Senaparib PK parameters were derived from blood samples collected from patients after the single administration, and at regular intervals during the first cycle of the dose-escalation and dose-expansion periods. Plasma concentrations of senaparib were determined using high-performance liquid chromatography-tandem mass spectrometry. Tumor response was assessed every 6 weeks per RECIST v1.1,[16] recording objective response rate (ORR), disease control rate (DCR), duration of response (DOR), and progression-free survival (PFS) by dose level for all patients and for those harboring BRCA^mut+ tumors.

Structure (SMILES): O=C(c1cc(Cn2c(=O)[nH]c(=O)c3c(F)cccc32)ccc1F)N1CCN(c2ncccn2)CC1 [Senaparib]
- TEAEs leading to death, patients (120 mg QD n = 4): 0 n (%)
- TEAEs leading to dose discontinuation, events (120 mg QD n = 4): 2 n ev
- TEAEs leading to dose discontinuation, patients (120 mg QD n = 4): 1 (25.0) n (%)
- TEAEs leading to dose interruption, events (120 mg QD n = 4): 3 n ev
- TEAEs leading to dose interruption, patients (120 mg QD n = 4): 2 (50.0) n (%)
- TEAEs leading to dose reduction, events (120 mg QD n = 4): 0 n ev
- TEAEs leading to dose reduction, patients (120 mg QD n = 4): 0 n (%)
- TRAEs Grade ≥3, events (120 mg QD n = 4): 6 n ev
- TRAEs Grade ≥3, patients (120 mg QD n = 4): 3 (75.0) n (%)
- TRAEs, events (120 mg QD n = 4): 47 n ev
- TRAEs, patients (120 mg QD n = 4): 4 (100) n (%)
- Vomiting TRAE, All (120 mg QD n = 4): 1 (25.0) n (%)
- Vomiting TRAE, Gr≥3 (120 mg QD n = 4): 0 n (%)
- WBC decreased TRAE, All (120 mg QD n = 4): 4 (100) n (%)
- WBC decreased TRAE, Gr≥3 (120 mg QD n = 4): 0 n (%)
- Grade ≥3 TRAEs (2-, 10-, 40-, and 60-mg dose groups): no grade ≥3 TRAEs
- Grade ≥3 TRAEs, incidence (highest) (120-mg dose group): 75.0%
- ALT increased, All (2 mg QD n = 1): 0 n (%)
- ALT increased, Gr≥3 (2 mg QD n = 1): 0 n (%)
- AST increased, All (2 mg QD n = 1): 0 n (%)
- AST increased, Gr≥3 (2 mg QD n = 1): 0 n (%)
- Abdominal distension, All (2 mg QD n = 1): 0 n (%)
- Abdominal distension, Gr≥3 (2 mg QD n = 1): 0 n (%)
- Anemia (incl. hemoglobin decreased), All (2 mg QD n = 1): 0 n (%)
- Anemia (incl. hemoglobin decreased), Gr≥3 (2 mg QD n = 1): 0 n (%)
- Appetite decreased, All (2 mg QD n = 1): 1 (100) n (%)
- Appetite decreased, Gr≥3 (2 mg QD n = 1): 0 n (%)
- Asthenia, All (2 mg QD n = 1): 1 (100) n (%)
- Asthenia, Gr≥3 (2 mg QD n = 1): 0 n (%)
- Blood bilirubin increased, All (2 mg QD n = 1): 0 n (%)
- Blood bilirubin increased, Gr≥3 (2 mg QD n = 1): 0 n (%)
- Blood creatinine increased, All (2 mg QD n = 1): 0 n (%)
- Blood creatinine increased, Gr≥3 (2 mg QD n = 1): 0 n (%)
- Hypokalemia, All (2 mg QD n = 1): 1 (100) n (%)
- Hypokalemia, Gr≥3 (2 mg QD n = 1): 0 n (%)
- Hyponatremia, All (2 mg QD n = 1): 0 n (%)
- Hyponatremia, Gr≥3 (2 mg QD n = 1): 0 n (%)
- Nausea, All (2 mg QD n = 1): 0 n (%)
- Nausea, Gr≥3 (2 mg QD n = 1): 0 n (%)
- Neutrophil count decreased, All (2 mg QD n = 1): 0 n (%)
- Neutrophil count decreased, Gr≥3 (2 mg QD n = 1): 0 n (%)
- Pain in extremity, All (2 mg QD n = 1): 0 n (%)
- Pain in extremity, Gr≥3 (2 mg QD n = 1): 0 n (%)
- Platelet count decreased, All (2 mg QD n = 1): 0 n (%)
- Platelet count decreased, Gr≥3 (2 mg QD n = 1): 0 n (%)
- Protein in urine, All (2 mg QD n = 1): 0 n (%)
- Protein in urine, Gr≥3 (2 mg QD n = 1): 0 n (%)
- Vomiting, All (2 mg QD n = 1): 0 n (%)
- Vomiting, Gr≥3 (2 mg QD n = 1): 0 n (%)
- WBC decreased, All (2 mg QD n = 1): 0 n (%)
- WBC decreased, Gr≥3 (2 mg QD n = 1): 0 n (%)
- ALT increased, All (5 mg QD n = 3): 0 n (%)
- ALT increased, Gr≥3 (5 mg QD n = 3): 0 n (%)
- AST increased, All (5 mg QD n = 3): 0 n (%)
- AST increased, Gr≥3 (5 mg QD n = 3): 0 n (%)
- Abdominal distension, All (5 mg QD n = 3): 1 (33.3) n (%)
- Abdominal distension, Gr≥3 (5 mg QD n = 3): 0 n (%)
- Anemia (incl. hemoglobin decreased), All (5 mg QD n = 3): 2 (66.7) n (%)
- Anemia (incl. hemoglobin decreased), Gr≥3 (5 mg QD n = 3): 1 (33.3) n (%)
- Appetite decreased, All (5 mg QD n = 3): 1 (33.3) n (%)
- Appetite decreased, Gr≥3 (5 mg QD n = 3): 0 n (%)
- Asthenia, All (5 mg QD n = 3): 2 (66.7) n (%)
- Asthenia, Gr≥3 (5 mg QD n = 3): 0 n (%)
- Blood bilirubin increased, All (5 mg QD n = 3): 1 (33.3) n (%)
- Blood bilirubin increased, Gr≥3 (5 mg QD n = 3): 0 n (%)
- Blood creatinine increased, All (5 mg QD n = 3): 0 n (%)
- Blood creatinine increased, Gr≥3 (5 mg QD n = 3): 0 n (%)
- Hypokalemia, All (5 mg QD n = 3): 0 n (%)
- Hypokalemia, Gr≥3 (5 mg QD n = 3): 0 n (%)
- Hyponatremia, All (5 mg QD n = 3): 0 n (%)
- Hyponatremia, Gr≥3 (5 mg QD n = 3): 0 n (%)
- Nausea, All (5 mg QD n = 3): 1 (33.3) n (%)
- Nausea, Gr≥3 (5 mg QD n = 3): 0 n (%)
- Neutrophil count decreased, All (5 mg QD n = 3): 1 (33.3) n (%)
- Neutrophil count decreased, Gr≥3 (5 mg QD n = 3): 0 n (%)
- Pain in extremity, All (5 mg QD n = 3): 1 (33.3) n (%)
- Pain in extremity, Gr≥3 (5 mg QD n = 3): 1 (33.3) n (%)
- Platelet count decreased, All (5 mg QD n = 3): 2 (66.7) n (%)
- Platelet count decreased, Gr≥3 (5 mg QD n = 3): 0 n (%)
- Protein in urine, All (5 mg QD n = 3): 0 n (%)
- Protein in urine, Gr≥3 (5 mg QD n = 3): 0 n (%)
- Vomiting, All (5 mg QD n = 3): 0 n (%)
- Vomiting, Gr≥3 (5 mg QD n = 3): 0 n (%)
- WBC decreased, All (5 mg QD n = 3): 1 (33.3) n (%)
- WBC decreased, Gr≥3 (5 mg QD n = 3): 0 n (%)
- ALT increased, All (10 mg QD n = 3): 1 (33.3) n (%)
- ALT increased, Gr≥3 (10 mg QD n = 3): 0 n (%)
- AST increased, All (10 mg QD n = 3): 1 (33.3) n (%)
- AST increased, Gr≥3 (10 mg QD n = 3): 0 n (%)
- Abdominal distension, All (10 mg QD n = 3): 0 n (%)
- Abdominal distension, Gr≥3 (10 mg QD n = 3): 0 n (%)
- Anemia (incl. hemoglobin decreased), All (10 mg QD n = 3): 1 (33.3) n (%)
- Anemia (incl. hemoglobin decreased), Gr≥3 (10 mg QD n = 3): 0 n (%)
- Appetite decreased, All (10 mg QD n = 3): 1 (33.3) n (%)
- Appetite decreased, Gr≥3 (10 mg QD n = 3): 0 n (%)
- Asthenia, All (10 mg QD n = 3): 0 n (%)
- Asthenia, Gr≥3 (10 mg QD n = 3): 0 n (%)
- Blood bilirubin increased, All (10 mg QD n = 3): 0 n (%)
- Blood bilirubin increased, Gr≥3 (10 mg QD n = 3): 0 n (%)
- Blood creatinine increased, All (10 mg QD n = 3): 0 n (%)
- Blood creatinine increased, Gr≥3 (10 mg QD n = 3): 0 n (%)
- Hypokalemia, All (10 mg QD n = 3): 0 n (%)
- Hypokalemia, Gr≥3 (10 mg QD n = 3): 0 n (%)
- Hyponatremia, All (10 mg QD n = 3): 0 n (%)
- Hyponatremia, Gr≥3 (10 mg QD n = 3): 0 n (%)
- Nausea, All (10 mg QD n = 3): 0 n (%)
- Nausea, Gr≥3 (10 mg QD n = 3): 0 n (%)
- Neutrophil count decreased, All (10 mg QD n = 3): 0 n (%)
- Neutrophil count decreased, Gr≥3 (10 mg QD n = 3): 0 n (%)
- Pain in extremity, All (10 mg QD n = 3): 0 n (%)
- Pain in extremity, Gr≥3 (10 mg QD n = 3): 0 n (%)
- Platelet count decreased, All (10 mg QD n = 3): 0 n (%)
- Platelet count decreased, Gr≥3 (10 mg QD n = 3): 0 n (%)
- Protein in urine, All (10 mg QD n = 3): 1 (33.3) n (%)
- Protein in urine, Gr≥3 (10 mg QD n = 3): 0 n (%)
- Vomiting, All (10 mg QD n = 3): 0 n (%)
